Assay results as given in patent US20150315241A1, “Antibiotic Peptides” (priority 2007, published 2015).
Values after ≈ are worked out from the molar mass of the structure shown. Where a SMILES comes first, the peptide text is derived from it. [ ]: non-standard residue; d: D form. Cha = N[C@@H](CC1CCCCC1)C(=O)O; NMeL = CN[C@@H](CC(C)C)C(=O)O; Orn = NCCC[C@H](N)C(=O)O

How the values were obtained:
[1] = system: R. radiobatter ATCC 15955; assay: Growth inhibition assay (MIC); assay type: cell-based, Rhizobium radiobacter
Experimental: (§1) The minimal inhibition concentrations (MIC) of the apidaecin-derived peptides and peptide-derivatives were determined by a growth inhibition assay using a serial peptide dilution in sterilized round-bottom 96-well plates (polystyrene, U-bottom, Greiner Bio-One GmbH) with a final volume of 100 μL per well. The bacteria, e.g., E. coli BL21 A1, were grown in nutrient broth (NB, Carl Roth GmbH+Co. KG, Karlsruhe, Germany) at 37° C. over night. To each well of the 96-well plate, 50 μL of the overnight culture adjusted to 5×10^6 CFU/mL in 1% TSB were added. Lyophilized peptides and peptidomimetics were dissolved in 1% TSB (tryptic soy broth) or water to give a final concentration of 250 μg/mL. Fifty μL of the peptide or peptidomimetics solution were added to the first well of a row on the plate and mixed. Fifty μL of the first well containing the peptide solution were transferred to the second well, mixed and again 50 μL transferred to the next well and so on. Thereby, a two-fold dilution series was obtained starting at 250 μg/mL in the first well down to 120 ng/mL in the 12th well of a row giving a final peptide or peptidomimetics concentration from 125 μg/mL (well 1) to 60 ng/mL (well 12). Plates were incubated at 37° C. for 20 hrs. The absorbance was measured at 595 nm using a TECAN micro plate spectrophotometer (Tecan, Germany). All peptides and peptidomimetics were measured in triplicates. Sterilized water was used as a negative control.
(§2) The following multidrug resistant bacteria strains were tested: • Eschericha coli 45849 and D31, • Klebsiella pneumoniae 123132 and K6, • Salmonella typhi S5 and Salmonella enterica subsp. enterica serovar Typhimurium (ATCC 700408), • Rhizobium radiobacter (ATCC 15955 deposited as Agrobacterium tumefaciens).

[2] = system: S. enterica subsp. Enterica serovar. typhi G10215 ATCC 700408; assay type: cell-based, Salmonella enterica; details: ATCC 700408, 20 h
Experimental: as §1, §2

E. coli 45849 = assay: Growth inhibition assay (MIC); assay type: cell-based, Escherichia coli
Experimental: as §1, §2

S. typhi S5 = assay type: cell-based, Salmonella typhi; details: S5, 20 h
Experimental: as §1, §2

E. coli D31 = assay type: cell-based, Escherichia coli; details: D31, 20 h
Experimental: as §1, §2

K. Pneumonia 123132 = assay: Growth inhibition assay (MIC); assay type: cell-based, Klebsiella pneumoniae
Experimental: as §1, §2

[3] = system: K. Pneumonia K6, ATCC 700603; assay: Growth inhibition assay (MIC); assay type: cell-based, Klebsiella pneumoniae; details: multidrug resistant strain; 1% TSB, 37° C., 20 hrs
Experimental: as §1, §2

[4] = multidrug resistant strain, 1% TSB, 37° C., 20 hrs

Row | Structure (SMILES) | MIC R. radiobatter ATCC 15955 [1, 4] | MIC S. enterica subsp. Enterica serovar. typhi G10215 ATCC 700408 [2] | MIC E. coli 45849 (E. coli 45849; [4]) | MIC S. typhi S5 (S. typhi S5) | MIC E. coli D31 (E. coli D31) | MIC K. Pneumonia 123132 (K. Pneumonia 123132; [4]) | MIC K. Pneumonia K6, ATCC 700603 [3] | MIC R. radiobatter ATCC 15955 ([1]; ATCC 15955, 20 h) | MIC E. coli 45849 (E. coli 45849; 45849, 20 h) | MIC K. Pneumonia 123132 (K. Pneumonia 123132; 20 h)
1 | CC[C@H](C)[C@H](NC(=O)[C@H](Cc1ccc(O)cc1)NC(=O)[C@@H](NC(=O)[C@@H]1CCCN1C(=O)[C@H](CCCNC(=N)N)NC(=O)[C@H](CC(N)=O)NC(=O)[C@H](CC(N)=O)NC(=O)CN)C(C)C)C(=O)N1CCC[C@H]1C(=O)N[C@@H](CCCNC(=N)N)C(=O)N1CCC[C@H]1C(=O)N[C@@H](CCCNC(=N)N)C(=O)N1CCC[C@H]1C(=O)N1CCC[C@H]1C(=O)N[C@@H](Cc1c[nH]cn1)C(=O)N1CCC[C@H]1C(=O)N[C@@H](CCCNC(=N)N)C(=O)N(C)[C@@H](CC(C)C)C(N)=O [compound 34] (H-GNNRPVYIPRPRPPHPR[NMeL]-NH2) | 1.3 µg/mL (≈ 0.605 µM) | 4 to 8 µg/mL | 4 µg/mL (≈ 1.86 µM) | 8 µg/mL (≈ 3.72 µM) | 8 µg/mL (≈ 3.72 µM) | 32 µg/mL (≈ 14.9 µM) | 32 µg/mL (≈ 14.9 µM) |  |  | 
2 | CC[C@H](C)[C@H](NC(=O)[C@H](Cc1ccc(O)cc1)NC(=O)[C@@H](NC(=O)[C@@H]1CCCN1C(=O)[C@H](CCCNC(=N)N)NC(=O)[C@H](CC(N)=O)NC(=O)[C@H](CC(N)=O)NC(=O)[C@@H](N)CCCN)C(C)C)C(=O)N1CCC[C@H]1C(=O)N[C@@H](CCCN)C(=O)N1CCC[C@H]1C(=O)N[C@@H](CCCNC(=N)N)C(=O)N1CCC[C@H]1C(=O)N1CCC[C@H]1C(=O)N[C@@H](Cc1c[nH]cn1)C(=O)N1CCC[C@H]1C(=O)N[C@@H](CCCNC(=N)N)C(=O)N[C@@H](CC1CCCCC1)C(N)=O [compound 35] (H-[Orn]NNRPVYIP[Orn]PRPPHPR[Cha]-NH2) |  | 4 to 8 µg/mL |  | 16 µg/mL (≈ 7.3 µM) | 8 µg/mL (≈ 3.65 µM) |  | 16 µg/mL (≈ 7.3 µM) | 2.6 µg/mL (≈ 1.19 µM) | 16 µg/mL (≈ 7.3 µM) | 32 µg/mL (≈ 14.6 µM)
3 | CC[C@H](C)[C@H](NC(=O)[C@H](Cc1ccc(O)cc1)NC(=O)[C@@H](NC(=O)[C@@H]1CCCN1C(=O)[C@H](CCCNC(=N)N)NC(=O)[C@H](CC(N)=O)NC(=O)[C@H](CC(N)=O)NC(=O)[C@H](CCCN)NC(C)=O)C(C)C)C(=O)N1CCC[C@H]1C(=O)N[C@@H](CCCNC(=N)N)C(=O)N1CCC[C@H]1C(=O)N[C@@H](CCCNC(=N)N)C(=O)N1CCC[C@H]1C(=O)N1CCC[C@H]1C(=O)N[C@@H](Cc1c[nH]cn1)C(=O)N1CCC[C@H]1C(=O)N[C@@H](CCCNC(=N)N)C(=O)N(C)[C@@H](CC(C)C)C(N)=O [compound 36] (Ac-[Orn]NNRPVYIPRPRPPHPR[NMeL]-NH2) | 1.3 µg/mL (≈ 0.578 µM) | 4 to 8 µg/mL | 4 µg/mL (≈ 1.78 µM) | 16 to 32 µg/mL | 8 µg/mL (≈ 3.56 µM) | 32 µg/mL (≈ 14.2 µM) | 64 to 128 µg/mL |  |  | 
4 | CC[C@H](C)[C@H](NC(=O)[C@H](Cc1ccc(O)cc1)NC(=O)[C@@H](NC(=O)[C@@H]1CCCN1C(=O)[C@H](CCCNC(=N)N)NC(=O)[C@H](CC(N)=O)NC(=O)[C@H](CC(N)=O)NC(=O)CN)C(C)C)C(=O)N1CCC[C@H]1C(=O)N[C@@H](CCCNC(=N)N)C(=O)N1CCC[C@H]1C(=O)N[C@@H](CCCNC(=N)N)C(=O)N1CCC[C@H]1C(=O)N1CCC[C@H]1C(=O)N[C@@H](Cc1c[nH]cn1)C(=O)N1CCC[C@H]1C(=O)N[C@@H](CCCNC(=N)N)C(=O)N[C@@H](CC1CCCCC1)C(N)=O [compound 37] (H-GNNRPVYIPRPRPPHPR[Cha]-NH2) | 10.5 µg/mL (≈ 4.83 µM) | 8 µg/mL (≈ 3.68 µM) | 16 µg/mL (≈ 7.35 µM) | 16 µg/mL (≈ 7.35 µM) | 8 µg/mL (≈ 3.68 µM) | 16 µg/mL (≈ 7.35 µM) | 32 µg/mL (≈ 14.7 µM) |  |  | 
5 | CC[C@H](C)[C@H](NC(=O)[C@H](Cc1ccc(O)cc1)NC(=O)[C@@H](NC(=O)[C@@H]1CCCN1C(=O)[C@H](CCCNC(=N)N)NC(=O)[C@H](CC(N)=O)NC(=O)[C@H](CC(N)=O)NC(=O)[C@H](CCCN)NC(C)=O)C(C)C)C(=O)N1CCC[C@H]1C(=O)N[C@@H](CCC(N)=O)C(=O)N1CCC[C@H]1C(=O)N[C@@H](CCCNC(=N)N)C(=O)N1CCC[C@H]1C(=O)N1CCC[C@H]1C(=O)N[C@@H](Cc1c[nH]cn1)C(=O)N1CCC[C@H]1C(=O)N[C@@H](CCCNC(=N)N)C(=O)N[C@@H](Cc1ccccc1)C(N)=O [compound 41] (Ac-[Orn]NNRPVYIPQPRPPHPRF-NH2) | 5.25 µg/mL (≈ 2.34 µM) | 8 µg/mL (≈ 3.57 µM) | 4 µg/mL (≈ 1.79 µM) | 8 µg/mL (≈ 3.57 µM) | >128 µg/mL | 32 µg/mL (≈ 14.3 µM) | 128 µg/mL (≈ 57.1 µM) |  |  | 
6 | CC[C@H](C)[C@H](NC(=O)[C@H](Cc1ccc(O)cc1)NC(=O)[C@@H](NC(=O)[C@@H]1CCCN1C(=O)[C@H](CCCNC(=N)N)NC(=O)[C@H](CC(N)=O)NC(=O)[C@H](CC(N)=O)NC(=O)[C@H](CCCN)NC(C)=O)C(C)C)C(=O)N1CCC[C@H]1C(=O)N[C@@H](CCCN)C(=O)N1CCC[C@H]1C(=O)N[C@@H](CCCNC(=N)N)C(=O)N1CCC[C@H]1C(=O)N1CCC[C@H]1C(=O)N[C@@H](Cc1c[nH]cn1)C(=O)N1CCC[C@H]1C(=O)N[C@@H](CCCNC(=N)N)C(=O)N[C@@H](CC1CCCCC1)C(N)=O [compound 46] (Ac-[Orn]NNRPVYIP[Orn]PRPPHPR[Cha]-NH2) |  | 8 µg/mL (≈ 3.58 µM) |  | 32 µg/mL (≈ 14.3 µM) | 16 µg/mL (≈ 7.17 µM) |  | 32 to 64 µg/mL | 10.5 µg/mL (≈ 4.7 µM) | 32 µg/mL (≈ 14.3 µM) | 32 to 64 µg/mL
7 | CC[C@H](C)[C@H](NC(=O)[C@H](Cc1ccc(O)cc1)NC(=O)[C@@H](NC(=O)[C@@H]1CCCN1C(=O)[C@H](CCCNC(=N)N)NC(=O)[C@H](CC(N)=O)NC(=O)[C@H](CC(N)=O)NC(=O)[C@@H](N)CCCN)C(C)C)C(=O)N1CCC[C@H]1C(=O)N[C@@H](CCCNC(=N)N)C(=O)N1CCC[C@H]1C(=O)N[C@@H](CCCNC(=N)N)C(=O)N1CCC[C@H]1C(=O)N1CCC[C@H]1C(=O)N[C@@H](Cc1c[nH]cn1)C(=O)N1CCC[C@H]1C(=O)N[C@@H](CCCNC(=N)N)C(=O)N(C)[C@@H](CC(C)C)C(N)=O [compound 47] (H-[Orn]NNRPVYIPRPRPPHPR[NMeL]-NH2) | 1.3 µg/mL (≈ 0.589 µM) | 8 µg/mL (≈ 3.63 µM) | 4 µg/mL (≈ 1.81 µM) | 32 µg/mL (≈ 14.5 µM) | 8 µg/mL (≈ 3.63 µM) | 32 µg/mL (≈ 14.5 µM) | 32 to 64 µg/mL |  |  | 
8 | CC[C@H](C)[C@H](NC(=O)[C@H](Cc1ccc(O)cc1)NC(=O)[C@@H](NC(=O)[C@@H]1CCCN1C(=O)[C@H](CCCNC(=N)N)NC(=O)[C@H](CC(N)=O)NC(=O)[C@H](CC(N)=O)NC(=O)[C@H](CCCN)NC(C)=O)C(C)C)C(=O)N1CCC[C@H]1C(=O)N[C@@H](CCCNC(=N)N)C(=O)N1CCC[C@H]1C(=O)N[C@@H](CCCNC(=N)N)C(=O)N1CCC[C@H]1C(=O)N1CCC[C@H]1C(=O)N[C@@H](Cc1c[nH]cn1)C(=O)N1CCC[C@H]1C(=O)N[C@@H](CCCNC(=N)N)C(=O)N[C@@H](CC(C)C)C(=O)OC [compound 48] (Ac-[Orn]NNRPVYIPRPRPPHPRL-OMe) | 1.3 µg/mL (≈ 0.578 µM) | 16 µg/mL (≈ 7.11 µM) | 4 µg/mL (≈ 1.78 µM) | 4 µg/mL (≈ 1.78 µM) | 64 µg/mL (≈ 28.4 µM) | 32 µg/mL (≈ 14.2 µM) | 128 µg/mL (≈ 56.9 µM) |  |  | 
9 | CC[C@H](C)[C@H](NC(=O)[C@H](Cc1ccc(O)cc1)NC(=O)[C@@H](NC(=O)[C@@H]1CCCN1C(=O)[C@H](CCCNC(=N)N)NC(=O)[C@H](CC(N)=O)NC(=O)[C@H](CC(N)=O)NC(=O)[C@H](CCCN)NC(C)=O)C(C)C)C(=O)N1CCC[C@H]1C(=O)N[C@@H](CCCN)C(=O)N1CCC[C@H]1C(=O)N[C@@H](CCCNC(=N)N)C(=O)N1CCC[C@H]1C(=O)N1CCC[C@H]1C(=O)N[C@@H](Cc1c[nH]cn1)C(=O)N1CCC[C@H]1C(=O)N[C@@H](CCCNC(=N)N)C(=O)N[C@@H](CC(C)C)C(=O)OC [compound 49] (Ac-[Orn]NNRPVYIP[Orn]PRPPHPRL-OMe) |  | 8 µg/mL (≈ 3.62 µM) |  | 4 µg/mL (≈ 1.81 µM) | 32 µg/mL (≈ 14.5 µM) |  | 128 µg/mL (≈ 58 µM) | 1.3 µg/mL (≈ 0.589 µM) | 2 µg/mL (≈ 0.906 µM) | 64 µg/mL (≈ 29 µM)
